Values quoted from earlier work, collected in article PMC6985722 (Antimicrobial Agents and Chemotherapy, 2020).

Columns and labels:
[1] = cited from earlier work
RSV = test system: RSV; parameters: method as in ref 21 = [21]; 21. Hanfelt-Goade D , Maimon N , Nimer A , Riviere F , Catherinot E , Ison M , Jeong SH , Walsh E , Gafter-Gvili A , Nama SR , Napora P , Chowers M , Bergeron A , Zeltser D , Moudgil H , Limaye AP , C; settings: hospitalized RSV-infected adults treated relatively late; cited from earlier work

Row | Structure (SMILES) | Terminal half-life [1] | Viral load and clinical outcomes (RSV)
1 | CC(C)C(=O)OC[C@@]1(CCl)O[C@@H](n2ccc(N)nc2=O)[C@H](F)[C@@H]1OC(=O)C(C)C [ALS-008176] | 63 h | 
2 | Cc1cn2nc([C@@H]3CCCCN3C(=O)c3cc(Cl)ccc3NS(C)(=O)=O)cc2nc1N1CC[C@H](N)C1 [GS-5806] |  | failed to significantly reduce the viral load or improve clinical outcomes
